Laboratory results from patent US20160002248A1, “GLS1 INHIBITORS FOR TREATING DISEASE” (Board of Regents, The University of Texas System, priority 2014, published 2016).

Key:
[1] = target: T1, purified recombinant human GAC (GLS1) (Homo sapiens, UniProt O94925); assay: GLS1 Enzymatic Activity Assay (dual-coupled enzymatic assay); format: biochemical
T1 sequence (O94925 55-598 isoform O94925-3 limits assumed): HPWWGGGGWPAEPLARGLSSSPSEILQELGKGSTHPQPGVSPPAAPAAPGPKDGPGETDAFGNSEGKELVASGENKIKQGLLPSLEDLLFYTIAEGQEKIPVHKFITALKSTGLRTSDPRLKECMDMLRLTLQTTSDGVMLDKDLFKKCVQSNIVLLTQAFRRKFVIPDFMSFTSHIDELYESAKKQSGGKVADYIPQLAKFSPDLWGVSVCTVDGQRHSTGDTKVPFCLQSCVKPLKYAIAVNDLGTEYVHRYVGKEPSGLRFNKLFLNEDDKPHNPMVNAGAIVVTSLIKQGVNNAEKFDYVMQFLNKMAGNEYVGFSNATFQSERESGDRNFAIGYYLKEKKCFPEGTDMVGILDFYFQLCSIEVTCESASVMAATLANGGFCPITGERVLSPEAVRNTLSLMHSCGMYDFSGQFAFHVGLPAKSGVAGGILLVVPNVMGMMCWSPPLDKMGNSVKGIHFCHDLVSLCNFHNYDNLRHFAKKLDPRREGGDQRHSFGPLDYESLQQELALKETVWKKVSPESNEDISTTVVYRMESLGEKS
Outline: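 GAC activity measured by coupling glutamate to glutamate oxidase and HRP, generating resorufin from Amplex UltraRed. Enzyme (2 nM) preincubated with 50 mM potassium phosphate 10 min at room temperature, then inhibitor 10 min; 1 mM glutamine substrate, 1% DMSO. Fluorescence 530/590 nm, kinetic or 20-min endpoint; IC50 from four-parameter logistic fit.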

A549 cells = assay: Proliferation Assay (A549 cell viability, Cell Titer Fluor); format: cell-based; conditions: Homo sapiens, 72 hours
Outline: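 Seed A549 at 1000 cells/well and culture 24 h. Add compound (final DMSO 0.5%) and incubate 72 h at 37 °C. Add Cell Titer Fluor, mix 15 min, incubate 30 min, read fluorescence and fit EC50 by four-parameter logistic.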

| IC50 [1] | EC50 (A549 cells) | Compound |
| --- | --- | --- |
| < 100 nM | < 100 nM | O=C(NCc1cncc(C(F)(F)F)c1)c1cn(CCCCc2cc3c(-c4ccc(F)cc4F)c(C4CC4)[nH]c3nn2)nn1 [Example 221, 1-{4-[6-cyclopropyl-5-(2,4-difluorophenyl)-7H-pyrrolo[2,3-c]pyridazin-3-yl]butyl}-N-{[5-(trifluoromethyl)pyridin-3-yl]methyl}-1H-1,2,3-triazole-4-carboxamide] |
| < 100 nM | 100 to 500 nM | O=C(NCc1ccc(CF)nc1)c1cn(CCCCc2cc3c(-c4ccc(F)cc4F)c(C4CC4)[nH]c3nn2)nn1 [Example 222, 1-{4-[6-cyclopropyl-5-(2,4-difluorophenyl)-7H-pyrrolo[2,3-c]pyridazin-3-yl]butyl}-N-{[6-(fluoromethyl)pyridin-3-yl]methyl}-1H-1,2,3-triazole-4-carboxamide] |
| < 100 nM | < 100 nM | O=C(NCc1cc(OC(F)(F)F)ccc1F)c1cn(CCCCc2cc3cc(C4CN(C(=O)C5CCC5)C4)[nH]c3nn2)nn1 [Example 223, 1-{4-[6-(1-cyclobutanecarbonylazetidin-3-yl)-7H-pyrrolo[2,3-c]pyridazin-3-yl]butyl}-N-{[2-fluoro-5-(trifluoromethoxy)phenyl]methyl}-1H-1,2,3-triazole-4-carboxamide] |
| < 100 nM | 100 to 500 nM | O=C(NCc1cc(OC(F)(F)F)ccc1F)c1cn(CCCCc2cc3cc(C4CN(C(=O)C5CC5)C4)[nH]c3nn2)nn1 [Example 224, 1-{4-[6-(1-cyclopropanecarbonylazetidin-3-yl)-7H-pyrrolo[2,3-c]pyridazin-3-yl]butyl}-N-{[2-fluoro-5-(trifluoromethoxy)phenyl]methyl}-1H-1,2,3-triazole-4-carboxamide] |
| < 100 nM | < 100 nM | O=C(NCc1cc(OC(F)(F)F)ccc1F)c1cn(CCCCc2cc3cc(C4CN(C(=O)C5(C(F)(F)F)CC5)C4)[nH]c3nn2)nn1 [Example 225, N-{[2-fluoro-5-(trifluoromethoxy)phenyl]methyl}-1-[4-(6-{1-[1-(trifluoromethyl)cyclopropane-carbonyl]azetidin-3-yl}-7H-pyrrolo[2,3-c]pyridazin-3-yl)butyl]-1H-1,2,3-triazole-4-carboxamide] |
| < 100 nM | 100 to 500 nM | O=C(NCc1cc(OC(F)(F)F)ccc1F)c1cn(CCCCc2cc3cc(C4CN(C(=O)C5CC(F)(F)C5)C4)[nH]c3nn2)nn1 [Example 226, 1-(4-{6-[1-(3,3-difluorocyclobutanecarbonyl)azetidin-3-yl]-7H-pyrrolo[2,3-c]pyridazin-3-yl}butyl)-N-{[2-fluoro-5-(trifluoromethoxy)phenyl]methyl}-1H-1,2,3-triazole-4-carboxamide] |
| < 100 nM | < 100 nM | CC(C)(F)C(=O)N1CC(c2cc3cc(CCCCn4cc(C(=O)NCc5cc(OC(F)(F)F)ccc5F)nn4)nnc3[nH]2)C1 [Example 227, 1-(4-{6-[1-(2-fluoro-2-methylpropanoyl)azetidin-3-yl]-7H-pyrrolo[2,3-c]pyridazin-3-yl}butyl)-N-{[2-fluoro-5-(trifluoromethoxy)phenyl]methyl}-1H-1,2,3-triazole-4-carboxamide] |
| < 100 nM | < 100 nM | COc1ccccc1-c1cc2cc(CCCCn3cc(C(=O)NCc4ccc(C)nc4)nn3)nnc2[nH]1 [Example 228, 1-{4-[6-(2-methoxyphenyl)-7H-pyrrolo[2,3-c]pyridazin-3-yl]butyl}-N-[(6-methylpyridin-3-yl)methyl]-1H-1,2,3-triazole-4-carboxamide] |
| < 100 nM | < 100 nM | CC(C)(C(=O)N1CC(c2cc3cc(CCCCn4cc(C(=O)NCc5cc(OC(F)(F)F)ccc5F)nn4)nnc3[nH]2)C1)C(F)(F)F [Example 229, N-(2-fluoro-5-(trifluoromethoxy)benzyl)-1-(4-(6-(1-(3,3,3-trifluoro-2,2-dimethylpropanoyl)azetidin-3-yl)-7H-pyrrolo[2,3-c]pyridazin-3-yl)butyl)-1H-1,2,3-triazole-4-carboxamide] |
| < 100 nM | 100 to 500 nM | CC(C)S(=O)(=O)N1CC(c2cc3cc(CCCCn4cc(C(=O)NCc5cc(OC(F)(F)F)ccc5F)nn4)nnc3[nH]2)C1 [Example 230, N-{[2-fluoro-5-(trifluoromethoxy)phenyl]methyl}-1-(4-{6-[1-(propane-2-sulfonyl)azetidin-3-yl]-7H-pyrrolo[2,3-c]pyridazin-3-yl}butyl)-1H-1,2,3-triazole-4-carboxamide] |
| < 100 nM | 100 to 500 nM | Cc1ccc(CNC(=O)c2cn(CC(F)CCc3cc4cc(C5CC5)[nH]c4nn3)nn2)cn1 (stereo not drawn) [Example 231, 1-(4-{6-cyclopropyl-7H-pyrrolo[2,3-c]pyridazin-3-yl)-2-fluorobutyl)-N-[(6-methylpyridin-3-yl)methyl]-1H-1,2,3-triazole-4-carboxamide] |
| < 100 nM | 100 to 500 nM | Cc1ccc(CNC(=O)c2cn(CCCCc3cc4cc(-c5cc(F)cc(F)c5)[nH]c4nn3)nn2)cn1 [Example 232, 1-{4-[6-(3,5-difluorophenyl)-7H-pyrrolo[2,3-c]pyridazin-3-yl]butyl}-N-[(6-methylpyridin-3-yl)methyl]-1H-1,2,3-triazole-4-carboxamide] |
| < 100 nM | < 100 nM | O=C(NCc1cc(OC(F)(F)F)ccc1F)c1cn(CCCCc2cc3cc(C4CN(C(=O)OC5CCC5)C4)[nH]c3nn2)nn1 [Example 233, cyclobutyl 3-(3-{4-[4-({[2-fluoro-5-(trifluoromethoxy)phenyl]methyl}carbamoyl)-1H-1,2,3-triazol-1-yl]butyl}-7H-pyrrolo[2,3-c]pyridazin-6-yl)azetidine-1-carboxylate] |
| < 100 nM | < 100 nM | O=C(NCc1cc(OC(F)(F)F)ccc1F)c1cn(CCCCc2cc3cc(C4CN(S(=O)(=O)C(F)(F)F)C4)[nH]c3nn2)nn1 [Example 234, N-{[2-fluoro-5-(trifluoromethoxy)phenyl]methyl}-1-{4-[6-(1-trifluoromethanesulfonyl-azetidin-3-yl)-7H-pyrrolo[2,3-c]pyridazin-3-yl]butyl}-1H-1,2,3-triazole-4-carboxamide] |
| < 100 nM | 500 to 5000 nM | O=C(NCc1cc(OC(F)(F)F)ccc1F)c1cn(CCCCc2cc3cc(C4CN(C(=O)C5COC5)C4)[nH]c3nn2)nn1 [Example 235, N-{[2-fluoro-5-(trifluoromethoxy)phenyl]methyl}-1-(4-{6-[1-(oxetane-3-carbonyl)azetidin-3-yl]-7H-pyrrolo[2,3-c]pyridazin-3-yl}butyl)-1H-1,2,3-triazole-4-carboxamide] |
| < 100 nM | 100 to 500 nM | Cc1ccc(CNC(=O)c2cn(CCCCc3cc4cc(-c5ccccc5Cl)[nH]c4nn3)nn2)cn1 [Example 236, 1-{4-[6-(2-chlorophenyl)-7H-pyrrolo[2,3-c]pyridazin-3-yl]butyl}-N-[(6-methylpyridin-3-yl)methyl]-1H-1,2,3-triazole-4-carboxamide] |
| < 100 nM | 100 to 500 nM | COCCOC(=O)N1CC(c2cc3cc(CCCCn4cc(C(=O)NCc5cc(OC(F)(F)F)ccc5F)nn4)nnc3[nH]2)C1 [Example 237, 2-methoxyethyl 3-(3-{4-[4-({[2-fluoro-5-(trifluoromethoxy)phenyl]methyl}carbamoyl)-1H-1,2,3-triazol-1-yl]butyl}-7H-pyrrolo[2,3-c]pyridazin-6-yl)azetidine-1-carboxylate] |
| < 100 nM | < 100 nM | O=C(NCc1cc(OC(F)(F)F)ccc1F)c1cn(CCCCc2cc3cc(C4CN(C(=O)Cc5ccccc5)C4)[nH]c3nn2)nn1 [Example 238, N-{[2-fluoro-5-(trifluoromethoxy)phenyl]methyl)-1-(4-{6-[1-(2-phenylacetyl)azetidin-3-yl]-7H-pyrrolo[2,3-c]pyridazin-3-yl}butyl)-1H-1,2,3-triazole-4-carboxamide] |
| < 100 nM | 100 to 500 nM | CC(C)(O)c1ccnc(CNC(=O)c2cn(CCCCc3cc4cc(-c5ccccc5F)[nH]c4nn3)nn2)c1 [Example 239, 1-{4-[6-(2-fluorophenyl)-7H-pyrrolo[2,3-c]pyridazin-3-yl]butyl}-N-{[4-(2-hydroxypropan-2-yl)pyridin-2-yl]methyl}-1H-1,2,3-triazole-4-carboxamide] |
| 100 to 500 nM | 100 to 500 nM | CNC(=O)c1cn(CCCCc2cc3cc(-c4ccccc4F)[nH]c3nn2)nn1 [Example 240, 1-{4-[6-(2-fluorophenyl)-7H-pyrrolo[2,3-c]pyridazin-3-yl]butyl}-N-methyl-1H-1,2,3-triazole-4-carboxamide] |
| < 100 nM | < 100 nM | Cc1ccc(CNC(=O)c2cn(CC(F)CCc3cc4cc(-c5ccccc5F)[nH]c4nn3)nn2)cn1 (stereo not drawn) [Example 241, 1-(2-fluoro-4-(6-(2-fluorophenyl)-7H-pyrrolo[2,3-c]pyridazin-3-yl)butyl)-N-((6-methylpyridin-3-yl)methyl)-1H-1,2,3-triazole-4-carboxamide] |
